Source: patent US20250382556A1, “MODULATION OF THE BRANCHED-CHAIN METABOLITE CONTENT OF FRUITS AND VEGETABLES” (BOARD OF TRUSTEES OF MICHIGAN STATE UNIVERSITY, priority 2024, published 2025)

Test system: ripe ‘Red Delicious’ apple fruit
Experiment: Headspace 2-methylbutanoate esters of ripe apple fruit, time course
Assay type: in vivo, Malus x domestica Borkh.
Settings: within three days of treatment
Experimental: ‘Red Delicious’ apple fruit held in refrigerated air for 5 months (see above) plus 1 day at 22° C. and at an advanced ripeness stage (‘ripe’) were treated with rimsulfuron (1 mM) with 0.2% Tween 20 on day 0 of the study and for the next three consecutive days as above described. The fruit were evaluated daily for volatile emissions (see below) for eight days. On days 0, 2, 4, and 7, representative treated and untreated fruit were selected for tissue collection for metabolite analysis (see below). On day 7, samples of fruit peel were fed, as described above, with water or 20 mM isoleucine or α-keto-β-methylvalerate.
Headspace volatiles from small tissue samples incubated in 22 mL vials were adsorbed for 30 s using a solid-phase micro extraction (SPME) fiber (65 μm PDMS-DVB; Supelco Analytical). The SPME fiber was then directly desorbed for 1 min in the injection port of a gas chromatograph (GC; HP-6890, Hewlett-Packard) coupled to a time-of-flight mass spectrometer (MS; Pegasus II, LECO). […]
Compounds were identified by comparison of the retention time and mass spectrum against authenticated reference standards and spectra (National Institute of Standards and Technology Mass Spectral Search Program Version 2.0, 2001). Volatiles were quantified by calibration with a standard of 59 authenticated, high-purity compounds (Sigma-Aldrich Co. and Fluka Chemical) including the target compounds. […]

CCS(=O)(=O)c1cccnc1S(=O)(=O)NC(=O)Nc1nc(OC)cc(OC)n1 [rimsulfuron, N-((4,6-dimethoxypyrimidin-2-yl)aminocarbonyl)-3-(ethylsulfonyl)-2-pyridinesulfonamide]
headspace content of 2-methylbutanoate esters, of control fruits: 15.0%
